Tests used:
Experiment in all cases: cells
Format in all cases: functional, cell-based, Homo sapiens
LB2518-MEL = details: Homo sapiens, LB2518-MEL;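 also: growth inhibition of human LB2518-MEL cells, measured with a cell viability assay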
Description: SANGER: Inhibition of human LB2518-MEL cell growth in a cell viability assay.

KURAMOCHI = details: Homo sapiens, KURAMOCHI;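 also: growth inhibition of KURAMOCHI cells, read out with a cell viability assay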
Description: SANGER: Inhibition of human KURAMOCHI cell growth in a cell viability assay.

Becker = details: Homo sapiens, Becker;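 also: growth inhibition of Becker cells, read out with a cell viability assay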
Description: SANGER: Inhibition of human Becker cell growth in a cell viability assay.

COLO-684 = details: Homo sapiens, COLO-684
Description: SANGER: Inhibition of human COLO-684 cell growth in a cell viability assay.

SW 954 = details: Homo sapiens, SW 954;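 also: growth inhibition of SW954 human cancer cells, read out as cell viability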
Description: SANGER: Inhibition of human SW954 cell growth in a cell viability assay.

KARPAS-299 = details: Homo sapiens, KARPAS-299
Description: SANGER: Inhibition of human KARPAS-299 cell growth in a cell viability assay.

A704 = details: Homo sapiens, A704;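 also: growth inhibition of human A704 cells, read out with a cell viability assay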
Description: SANGER: Inhibition of human A704 cell growth in a cell viability assay.

KNS-81-FD = details: Homo sapiens, KNS-81-FD;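 also: growth inhibition of KNS-81-FD cells, read out with a cell viability assay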
Description: SANGER: Inhibition of human KNS-81-FD cell growth in a cell viability assay.

JVM-2 = details: Homo sapiens, JVM-2;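 also: growth inhibition of JVM-2 cells determined by a cell viability assay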
Description: SANGER: Inhibition of human JVM-2 cell growth in a cell viability assay.

LU-139 = details: Homo sapiens, LU-139
Description: SANGER: Inhibition of human LU-139 cell growth in a cell viability assay.

NCI-H1581 = details: Homo sapiens, NCI-H1581;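 also: cell growth inhibition read out by a viability assay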
Description: SANGER: Inhibition of human NCI-H1581 cell growth in a cell viability assay.

NCI-H446 = details: Homo sapiens, NCI-H446;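 also: growth inhibition of NCI-H446 cells determined by a cell viability assay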
Description: SANGER: Inhibition of human NCI-H446 cell growth in a cell viability assay.

LXF-289 cell line = details: Homo sapiens, LXF-289
Description: SANGER: Inhibition of human LXF-289 cell growth in a cell viability assay.

KMOE-2 = details: Homo sapiens, KMOE-2;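 also: growth inhibition of human KMOE-2 cells, read out with a cell viability assay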
Description: SANGER: Inhibition of human KMOE-2 cell growth in a cell viability assay.

MHH-NB-11 = details: Homo sapiens, MHH-NB-11;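 also: growth inhibition of human MHH-NB-11 cells, read out by a cell viability assay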
Description: SANGER: Inhibition of human MHH-NB-11 cell growth in a cell viability assay.

KP-N-YS = details: Homo sapiens, KP-N-YS;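 also: cell viability assay measuring inhibition of cell line growth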
Description: SANGER: Inhibition of human KP-N-YS cell growth in a cell viability assay.

LS-1034 = details: Homo sapiens, LS-1034
Description: SANGER: Inhibition of human LS-1034 cell growth in a cell viability assay.

697 = details: Homo sapiens
Description: SANGER: Inhibition of human 697 cell growth in a cell viability assay.

LS-123 = details: Homo sapiens, LS-123
Description: SANGER: Inhibition of human LS-123 cell growth in a cell viability assay.

SCC-15 = details: Homo sapiens, SCC-15;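 also: growth inhibition of SCC-15 cells, read out with a cell viability assay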
Description: SANGER: Inhibition of human SCC-15 cell growth in a cell viability assay.

NCI-H69 = details: Homo sapiens, NCI-H69;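 also: growth inhibition of the cell line, read out with a cell viability assay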
Description: SANGER: Inhibition of human NCI-H69 cell growth in a cell viability assay.

BB30-HNC = details: Homo sapiens, BB30-HNC;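 also: growth inhibition of the cultured cell line, read out by a cell viability assay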
Description: SANGER: Inhibition of human BB30-HNC cell growth in a cell viability assay.

D-263MG = details: Homo sapiens, D-263MG
Description: SANGER: Inhibition of human D-263MG cell growth in a cell viability assay.

NCI-H1650 = details: Homo sapiens, NCI-H1650;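 also: growth inhibition of human NCI-H1650 cells measured by a cell viability assay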
Description: SANGER: Inhibition of human NCI-H1650 cell growth in a cell viability assay.

EW-1 = details: Homo sapiens, EW-1;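 also: growth inhibition of the human EW-1 cell line, read out by a cell viability assay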
Description: SANGER: Inhibition of human EW-1 cell growth in a cell viability assay.

NMC-G1 = details: Homo sapiens, NMC-G1;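 also: growth inhibition of the NMC-G1 cell line, measured with a cell viability read-out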
Description: SANGER: Inhibition of human NMC-G1 cell growth in a cell viability assay.

VA-ES-BJ = details: Homo sapiens, VA-ES-BJ;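 also: growth inhibition of the VA-ES-BJ cell line, read out by a cell viability assay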
Description: SANGER: Inhibition of human VA-ES-BJ cell growth in a cell viability assay.

NCI-H1648 = details: Homo sapiens, NCI-H1648;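 also: cell viability assay measuring inhibition of NCI-H1648 cell growth, from the Sanger screening data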
Description: SANGER: Inhibition of human NCI-H1648 cell growth in a cell viability assay.

NCI-H82 = details: Homo sapiens, NCI-H82;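 also: growth inhibition of NCI-H82 cells, measured with a cell viability readout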
Description: SANGER: Inhibition of human NCI-H82 cell growth in a cell viability assay.

LAMA-84 = details: Homo sapiens, LAMA-84;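 also: growth inhibition of LAMA-84 cells, read out with a cell viability assay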
Description: SANGER: Inhibition of human LAMA-84 cell growth in a cell viability assay.

BV-173 = details: Homo sapiens, BV-173
Description: SANGER: Inhibition of human BV-173 cell growth in a cell viability assay.

HD-MY-Z = details: Homo sapiens, HD-MY-Z;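 also: growth inhibition of HD-MY-Z cells, read out with a cell viability assay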
Description: SANGER: Inhibition of human HD-MY-Z cell growth in a cell viability assay.

Calu-6 = details: Homo sapiens, Calu-6;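 also: growth of human Calu-6 cells, read out by a cell viability assay, IC50 marking inhibition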
Description: SANGER: Inhibition of human Calu-6 cell growth in a cell viability assay.

HCE-T = details: Homo sapiens, HCE-T;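 also: cell viability assay read-out, reporting inhibition of HCE-T cell growth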
Description: SANGER: Inhibition of human HCE-T cell growth in a cell viability assay.

HH = details: Homo sapiens, HH
Description: SANGER: Inhibition of human HH cell growth in a cell viability assay.

MZ7-mel = details: Homo sapiens, MZ7-mel;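 also: growth inhibition of human MZ7-mel cells, measured by a cell viability assay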
Description: SANGER: Inhibition of human MZ7-mel cell growth in a cell viability assay.

NB17 = details: Homo sapiens, NB17;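 also: growth inhibition of NB17 cells, read out with a cell viability assay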
Description: SANGER: Inhibition of human NB17 cell growth in a cell viability assay.

MLMA = details: Homo sapiens, MLMA;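 also: growth inhibition of MLMA cells (human), determined through a cell viability readout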
Description: SANGER: Inhibition of human MLMA cell growth in a cell viability assay.

ES3 = details: Homo sapiens, ES3;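 also: growth inhibition of ES3 cells, read out with a cell viability assay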
Description: SANGER: Inhibition of human ES3 cell growth in a cell viability assay.

ML-2 = details: Homo sapiens, ML-2;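 also: growth inhibition of ML-2 cells, measured with a cell viability readout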
Description: SANGER: Inhibition of human ML-2 cell growth in a cell viability assay.

NCI-H23 = details: Homo sapiens, NCI-H23;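 also: cell viability assay measuring growth inhibition of NCI-H23 cells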
Description: SANGER: Inhibition of human NCI-H23 cell growth in a cell viability assay.

ES8 = details: Homo sapiens, ES8;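 also: growth inhibition of human ES8 cells, read out with a cell viability assay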
Description: SANGER: Inhibition of human ES8 cell growth in a cell viability assay.

OVCAR-4 = details: Homo sapiens, OVCAR-4;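 also: growth inhibition of human OVCAR-4 cells, measured with a cell viability assay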
Description: SANGER: Inhibition of human OVCAR-4 cell growth in a cell viability assay.

ES5 = details: Homo sapiens, ES5;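 also: growth inhibition of human ES5 cells, read out by a cell viability assay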
Description: SANGER: Inhibition of human ES5 cell growth in a cell viability assay.

NB10 = details: Homo sapiens, NB10;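 also: growth inhibition of NB10 cells, read out by a cell viability assay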
Description: SANGER: Inhibition of human NB10 cell growth in a cell viability assay.

A253 cell line = details: Homo sapiens, A253;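 also: growth inhibition of A253 cells, read out with a cell viability assay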
Description: SANGER: Inhibition of human A253 cell growth in a cell viability assay.

TE-1 = details: Homo sapiens, TE-1;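 also: growth inhibition of the human TE-1 cell line, read out with a cell viability assay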
Description: SANGER: Inhibition of human TE-1 cell growth in a cell viability assay.

OCI-AML2 = details: Homo sapiens, OCI-AML2;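 also: growth inhibition of OCI-AML2 cells, read out with a cell viability assay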
Description: SANGER: Inhibition of human OCI-AML2 cell growth in a cell viability assay.

no-11 = details: Homo sapiens;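 also: growth inhibition of human NO-11 cells, read out with a cell viability assay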
Description: SANGER: Inhibition of human no-11 cell growth in a cell viability assay.

COc1cc(-c2nn([C@H]3CC[C@H](N4CCN(C(C)=O)CC4)CC3)c3ncnc(N)c23)ccc1NC(=O)c1cc2ccccc2n1C
IC50 (LB2518-MEL): > 5120 nM | IC50 (KURAMOCHI): 896 nM | IC50 (Becker): 4210 nM | IC50 (COLO-684): > 5120 nM | IC50 (SW 954): 696 nM | IC50 (KARPAS-299): > 5120 nM | IC50 (A704): 1150 nM | IC50 (KNS-81-FD): > 5120 nM | IC50 (JVM-2): > 5120 nM | IC50 (LU-139): > 5120 nM | IC50 (NCI-H1581): > 5120 nM | IC50 (NCI-H446): > 5120 nM | IC50 (LXF-289 cell line): 757 nM | IC50 (KMOE-2): > 5120 nM | IC50 (MHH-NB-11): > 5120 nM | IC50 (KP-N-YS): > 5120 nM | IC50 (LS-1034): > 5120 nM | IC50 697: 1730 nM | IC50 (LS-123): > 5120 nM | IC50 (SCC-15): > 5120 nM | IC50 (NCI-H69): > 5120 nM | IC50 (BB30-HNC): 874 nM | IC50 (D-263MG): > 5120 nM | IC50 (NCI-H1650): > 5120 nM | IC50 (EW-1): > 5120 nM | IC50 (NMC-G1): 573 nM | IC50 (VA-ES-BJ): > 5120 nM | IC50 (NCI-H1648): 387 nM | IC50 (NCI-H82): > 5120 nM | IC50 (LAMA-84): 147 nM | IC50 (BV-173): 345 nM | IC50 (HD-MY-Z): 4880 nM | IC50 (Calu-6): > 5120 nM | IC50 (HCE-T): > 5120 nM | IC50 (HH): > 5120 nM | IC50 (MZ7-mel): > 5120 nM | IC50 (NB17): > 5120 nM | IC50 (MLMA): 209 nM | IC50 (ES3): > 5120 nM | IC50 (ML-2): > 5120 nM | IC50 (NCI-H23): > 5120 nM | IC50 (ES8): > 5120 nM | IC50 (OVCAR-4): 1040 nM | IC50 (ES5): > 5120 nM | IC50 (NB10): > 5120 nM | IC50 (A253 cell line): > 5120 nM | IC50 (TE-1): 2050 nM | IC50 (OCI-AML2): 5100 nM | IC50 (no-11): > 5120 nM

Cc1ccc(-c2c(C(=O)CCl)n(CCCO)c3ncnc(N)c23)cc1
IC50 (LB2518-MEL): > 4000 nM | IC50 (KURAMOCHI): > 4000 nM | IC50 (Becker): > 4000 nM | IC50 (COLO-684): > 4000 nM | IC50 (SW 954): > 4000 nM | IC50 (KARPAS-299): > 4000 nM | IC50 (A704): > 4000 nM | IC50 (KNS-81-FD): > 4000 nM | IC50 (JVM-2): > 4000 nM | IC50 (LU-139): > 4000 nM | IC50 (NCI-H1581): > 4000 nM | IC50 (NCI-H446): > 4000 nM | IC50 (LXF-289 cell line): > 4000 nM | IC50 (KMOE-2): > 4000 nM | IC50 (MHH-NB-11): > 4000 nM | IC50 (KP-N-YS): > 4000 nM | IC50 (LS-1034): > 4000 nM | IC50 697: 293 nM | IC50 (LS-123): > 4000 nM | IC50 (SCC-15): > 4000 nM | IC50 (NCI-H69): > 4000 nM | IC50 (BB30-HNC): 1820 nM | IC50 (D-263MG): > 4000 nM | IC50 (NCI-H1650): > 4000 nM | IC50 (EW-1): > 4000 nM | IC50 (NMC-G1): > 4000 nM | IC50 (VA-ES-BJ): > 4000 nM | IC50 (NCI-H1648): > 4000 nM | IC50 (NCI-H82): > 4000 nM | IC50 (LAMA-84): > 4000 nM | IC50 (BV-173): > 4000 nM | IC50 (HD-MY-Z): 2500 nM | IC50 (Calu-6): > 4000 nM | IC50 (HCE-T): > 4000 nM | IC50 (HH): > 4000 nM | IC50 (MZ7-mel): > 4000 nM | IC50 (NB17): 1120 nM | IC50 (MLMA): > 4000 nM | IC50 (ES3): > 4000 nM | IC50 (ML-2): > 4000 nM | IC50 (NCI-H23): > 4000 nM | IC50 (ES8): > 4000 nM | IC50 (OVCAR-4): > 4000 nM | IC50 (ES5): > 4000 nM | IC50 (NB10): > 4000 nM | IC50 (A253 cell line): > 4000 nM | IC50 (TE-1): > 4000 nM | IC50 (OCI-AML2): > 4000 nM | IC50 (no-11): > 4000 nM

COc1cc2ncn(-c3cc(OCc4ccccc4C(F)(F)F)c(C(N)=O)s3)c2cc1OC [GW843682X]
IC50 (LB2518-MEL): 107 nM | IC50 (KURAMOCHI): 50.1 nM | IC50 (Becker): 59.7 nM | IC50 (COLO-684): 95.4 nM | IC50 (SW 954): 18.1 nM | IC50 (KARPAS-299): 94.3 nM | IC50 (A704): > 256 nM | IC50 (KNS-81-FD): > 256 nM | IC50 (JVM-2): > 256 nM | IC50 (LU-139): 65.6 nM | IC50 (NCI-H1581): 30.5 nM | IC50 (NCI-H446): 12 nM | IC50 (LXF-289 cell line): 16.2 nM | IC50 (KMOE-2): 231 nM | IC50 (MHH-NB-11): 227 nM | IC50 (KP-N-YS): 27.2 nM | IC50 (LS-1034): 59.7 nM | IC50 697: 9.86 nM | IC50 (LS-123): 193 nM | IC50 (SCC-15): > 256 nM | IC50 (NCI-H69): 181 nM | IC50 (BB30-HNC): 34.1 nM | IC50 (D-263MG): > 256 nM | IC50 (NCI-H1650): > 256 nM | IC50 (EW-1): 16.8 nM | IC50 (NMC-G1): 206 nM | IC50 (VA-ES-BJ): 22.7 nM | IC50 (NCI-H1648): 14.4 nM | IC50 (NCI-H82): 15.2 nM | IC50 (LAMA-84): 39.9 nM | IC50 (BV-173): 17.7 nM | IC50 (HD-MY-Z): 66.3 nM | IC50 (Calu-6): 36.7 nM | IC50 (HCE-T): 217 nM | IC50 (HH): 98.8 nM | IC50 (MZ7-mel): 83.9 nM | IC50 (NB17): 41 nM | IC50 (MLMA): 24.9 nM | IC50 (ES3): > 256 nM | IC50 (ML-2): 50.3 nM | IC50 (NCI-H23): > 256 nM | IC50 (ES8): 10.5 nM | IC50 (OVCAR-4): 71.5 nM | IC50 (ES5): > 256 nM | IC50 (NB10): > 256 nM | IC50 (A253 cell line): 53.2 nM | IC50 (TE-1): 14.3 nM | IC50 (OCI-AML2): 49.9 nM | IC50 (no-11): 178 nM

CC(=O)O[C@H]1C(=O)[C@@]2(C)[C@H]([C@H](OC(=O)c3ccccc3)[C@]3(O)C[C@H](OC(=O)[C@H](O)[C@@H](NC(=O)c4ccccc4)c4ccccc4)C(C)=C1C3(C)C)[C@]1(OC(C)=O)CO[C@@H]1C[C@@H]2O [PACLITAXEL]
IC50 (LB2518-MEL): 81.4 nM | IC50 (KURAMOCHI): 7.48 nM | IC50 (Becker): 7.2 nM | IC50 (COLO-684): 29.1 nM | IC50 (SW 954): 1.19 nM | IC50 (KARPAS-299): 39.8 nM | IC50 (A704): > 102 nM | IC50 (KNS-81-FD): > 102 nM | IC50 (JVM-2): > 102 nM | IC50 (LU-139): 59.9 nM | IC50 (NCI-H1581): 49.5 nM | IC50 (NCI-H446): 21.1 nM | IC50 (LXF-289 cell line): 8.18 nM | IC50 (KMOE-2): > 102 nM | IC50 (MHH-NB-11): > 102 nM | IC50 (KP-N-YS): > 102 nM | IC50 (LS-1034): 80.4 nM | IC50 697: 1.5 nM | IC50 (LS-123): 16.6 nM | IC50 (SCC-15): > 102 nM | IC50 (NCI-H69): 17.8 nM | IC50 (BB30-HNC): 3.14 nM | IC50 (D-263MG): > 102 nM | IC50 (NCI-H1650): > 102 nM | IC50 (EW-1): 3.71 nM | IC50 (NMC-G1): 34.5 nM | IC50 (VA-ES-BJ): 3 nM | IC50 (NCI-H1648): 4.69 nM | IC50 (NCI-H82): 43.1 nM | IC50 (LAMA-84): > 102 nM | IC50 (BV-173): 25.5 nM | IC50 (HD-MY-Z): 11.6 nM | IC50 (Calu-6): 10.1 nM | IC50 (HCE-T): 20.9 nM | IC50 (HH): 71.6 nM | IC50 (MZ7-mel): 40.4 nM | IC50 (NB17): 49.8 nM | IC50 (MLMA): 74.6 nM | IC50 (ES3): > 102 nM | IC50 (ML-2): 20.5 nM | IC50 (NCI-H23): > 102 nM | IC50 (ES8): 5.38 nM | IC50 (OVCAR-4): 9.04 nM | IC50 (ES5): > 102 nM | IC50 (NB10): > 102 nM | IC50 (A253 cell line): 17.4 nM | IC50 (TE-1): 6.06 nM | IC50 (OCI-AML2): 8.52 nM | IC50 (no-11): 34.8 nM

Reference: ChEMBL document CHEMBL1201861, “Genomics of Drug Sensitity in Cancer screening data, Wellcome Trust Sanger Institute”
